Results as given in ChEMBL document CHEMBL1201862, “PubChem BioAssay data set” (2004).
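All cell lines were grown in 96-well plates and treated with compound for 48 hours. GI50: concentration for 50% inhibition of growth.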 Active and inactive are the calls of the source. Rule as the data show it: active = GI50 up to about 1.1 µM and inactive = higher.

Experiments:
Assay in all cases: growth of human tumour cells (NCI), 48 h
SW-620 = test system: SW-620
NCI-H522 = test system: NCI-H522
MOLT-4 = test system: MOLT-4
Malme-3M = test system: Malme-3M
HCT-116 = test system: HCT-116
SN12C = test system: SN12C
ACHN = test system: ACHN
UACC-257 = test system: UACC-257
SK-MEL-28 = test system: SK-MEL-28
RXF 393 = test system: RXF 393
HL-60 = test system: HL-60
EKVX = test system: EKVX
U-251 = test system: U-251
A549 = test system: A549
HT-29 = test system: HT-29
OVCAR-4 = test system: OVCAR-4
HOP-92 = test system: HOP-92
HCC 2998 = test system: HCC 2998
LOX IMVI = test system: LOX IMVI

Measured: GI50

COc1ccc2c3ccc4c(c3n(C)c2c1)C(=O)C=CC4=O
inactive: SW-620 16.4 µM | NCI-H522 10.4 µM | MOLT-4 2.86 µM | Malme-3M 30.5 µM | HCT-116 19.6 µM | SN12C 40.4 µM | ACHN 20.7 µM | UACC-257 29.2 µM | SK-MEL-28 84.9 µM | RXF 393 18.4 µM | HL-60 3.84 µM | EKVX 72.8 µM | U-251 > 100 µM | A549 > 100 µM | HT-29 > 100 µM | OVCAR-4 29.6 µM | HOP-92 14.1 µM | HCC 2998 84.5 µM

CC(C)=CCCC1(C)C=Cc2c(c(C)cc3c2[nH]c2cc(O)ccc23)O1 (stereo not drawn)
inactive: SW-620 > 25 µM | NCI-H522 6.82 µM | MOLT-4 > 25 µM | Malme-3M > 25 µM | HCT-116 > 25 µM | SN12C > 25 µM | ACHN > 25 µM | LOX IMVI > 25 µM | SK-MEL-28 > 25 µM | RXF 393 > 25 µM | HL-60 22.5 µM | U-251 > 25 µM | A549 > 25 µM | HT-29 > 25 µM | OVCAR-4 22.7 µM | HOP-92 > 25 µM | HCC 2998 > 25 µM

COc1ccc(/C=C/COC(C)=O)cc1OC
inactive: SW-620 > 100 µM | NCI-H522 > 100 µM | MOLT-4 > 100 µM | Malme-3M > 100 µM | SN12C > 100 µM | ACHN > 100 µM | UACC-257 > 100 µM | SK-MEL-28 > 100 µM | RXF 393 > 100 µM | EKVX > 100 µM | U-251 > 100 µM | A549 > 100 µM | HT-29 > 100 µM | OVCAR-4 > 100 µM | HOP-92 86.5 µM | HCC 2998 > 100 µM

O=C1CCC2(c3ccc(Cl)cc3)Nc3ccncc3N12 (stereo not drawn)
inactive: SW-620 > 10 µM | NCI-H522 > 10 µM | MOLT-4 > 10 µM | Malme-3M > 10 µM | HCT-116 > 10 µM | SN12C > 10 µM | ACHN > 10 µM | LOX IMVI > 10 µM | UACC-257 > 10 µM | HL-60 > 10 µM | EKVX > 10 µM | U-251 > 10 µM | A549 > 10 µM | HT-29 > 10 µM | OVCAR-4 > 10 µM | HOP-92 > 10 µM

O=C(/C=C/c1ccccc1O)C(c1ccccc1)c1ccccc1
inactive: SW-620 13.1 µM | NCI-H522 65.6 µM | MOLT-4 > 100 µM | Malme-3M > 100 µM | HCT-116 > 100 µM | SN12C > 100 µM | ACHN > 100 µM | LOX IMVI 24.1 µM | UACC-257 > 100 µM | SK-MEL-28 > 100 µM | RXF 393 > 100 µM | EKVX > 100 µM | U-251 > 100 µM | A549 > 100 µM | HT-29 > 100 µM | OVCAR-4 48.5 µM | HOP-92 > 100 µM | HCC 2998 > 100 µM

Cc1c(-c2ccccc2)[nH]c2cn[nH]c(=O)c12
inactive: SW-620 > 100 µM | NCI-H522 86.1 µM | MOLT-4 83.2 µM | Malme-3M > 100 µM | HCT-116 > 100 µM | ACHN > 100 µM | LOX IMVI 70.6 µM | UACC-257 > 100 µM | SK-MEL-28 > 100 µM | HL-60 10.7 µM | EKVX 34.6 µM | U-251 > 100 µM | A549 > 100 µM | HT-29 > 100 µM | HOP-92 > 100 µM | HCC 2998 > 100 µM

CCOC(=O)C(C)(C)Oc1ccc(/C=C/C(=O)c2ccc(Cl)cc2)cc1
inactive: SW-620 13.9 µM | MOLT-4 19.6 µM | Malme-3M 18.4 µM | HCT-116 16.4 µM | SN12C 19.1 µM | ACHN > 10 µM | LOX IMVI 16.6 µM | UACC-257 18.4 µM | SK-MEL-28 19.4 µM | RXF 393 15.3 µM | HL-60 24.5 µM | EKVX > 100 µM | U-251 17.7 µM | A549 33.5 µM | HT-29 15.6 µM | OVCAR-4 18.9 µM | HCC 2998 > 10 µM

CC(=O)n1cc(CC(C)O)c(=O)[nH]c1=O (stereo not drawn)
inactive: SW-620 > 100 µM | NCI-H522 > 100 µM | MOLT-4 > 100 µM | HCT-116 > 100 µM | SN12C 17.1 µM | ACHN > 100 µM | LOX IMVI > 100 µM | UACC-257 > 100 µM | SK-MEL-28 > 100 µM | HL-60 > 100 µM | EKVX > 100 µM | U-251 > 100 µM | A549 > 100 µM | HT-29 > 100 µM | OVCAR-4 > 100 µM

CC#CCC1CCC(OCC)=CC1=O (stereo not drawn)
inactive: SW-620 > 100 µM | NCI-H522 > 100 µM | MOLT-4 > 100 µM | HCT-116 > 100 µM | SN12C > 100 µM | ACHN > 100 µM | LOX IMVI > 100 µM | UACC-257 > 100 µM | SK-MEL-28 > 100 µM | RXF 393 > 100 µM | HL-60 > 100 µM | EKVX > 100 µM | U-251 > 100 µM | A549 > 100 µM | HT-29 > 100 µM | OVCAR-4 > 100 µM | HOP-92 > 100 µM

CC(C)(C)c1ccc2c(c1)S(=O)(=O)Nc1cccc(c1)NS(=O)(=O)c1cc(C(C)(C)C)ccc1OCCOCCO2
inactive: SW-620 > 100 µM | MOLT-4 > 100 µM | Malme-3M > 100 µM | HCT-116 > 100 µM | SN12C > 100 µM | ACHN > 100 µM | LOX IMVI > 100 µM | UACC-257 > 100 µM | SK-MEL-28 > 100 µM | RXF 393 6.49 µM | EKVX > 100 µM | U-251 > 100 µM | A549 > 100 µM | HT-29 > 100 µM | OVCAR-4 > 100 µM | HOP-92 50.6 µM | HCC 2998 > 100 µM

OC1OC2COC(c3ccccc3)OC2C(O)C1O (stereo not drawn)
inactive: SW-620 > 100 µM | NCI-H522 > 100 µM | MOLT-4 > 100 µM | Malme-3M > 100 µM | HCT-116 > 100 µM | SN12C > 100 µM | ACHN > 100 µM | LOX IMVI > 100 µM | UACC-257 > 100 µM | HL-60 > 100 µM | EKVX > 100 µM | U-251 > 100 µM | A549 > 100 µM | HT-29 > 100 µM | OVCAR-4 > 100 µM | HOP-92 > 100 µM | HCC 2998 > 100 µM

N#CC(NNC(=O)c1ccccc1O)c1ccccc1O (stereo not drawn)
inactive: SW-620 7.66 µM | NCI-H522 8.87 µM | MOLT-4 2.23 µM | Malme-3M 10 µM | HCT-116 4.29 µM | SN12C 5.27 µM | ACHN 2.44 µM | LOX IMVI 3.78 µM | UACC-257 4.06 µM | SK-MEL-28 10.9 µM | RXF 393 12.8 µM | HL-60 1.27 µM | U-251 4.18 µM | A549 8.69 µM | HT-29 41.4 µM | OVCAR-4 9.64 µM | HOP-92 13.6 µM

Cc1ccc(S(=O)(=O)N/N=C(\c2nc3ccc(Cl)cc3[nH]c2=O)C(O)c2ccco2)cc1 (stereo not drawn)
inactive: SW-620 > 100 µM | MOLT-4 28.1 µM | Malme-3M > 100 µM | HCT-116 > 100 µM | ACHN > 100 µM | LOX IMVI > 100 µM | UACC-257 > 100 µM | SK-MEL-28 > 100 µM | RXF 393 > 100 µM | HL-60 44 µM | EKVX > 100 µM | A549 > 100 µM | HT-29 > 100 µM | OVCAR-4 > 100 µM | HOP-92 > 100 µM | HCC 2998 > 100 µM

CC(C)(C)C(=O)/C=C/c1ccc(Oc2ccccc2)cc1
inactive: SW-620 17.3 µM | NCI-H522 11.2 µM | MOLT-4 6.95 µM | Malme-3M 19.2 µM | HCT-116 12.1 µM | SN12C 19.3 µM | ACHN 17.5 µM | UACC-257 18.7 µM | SK-MEL-28 32 µM | RXF 393 27.4 µM | EKVX 20 µM | U-251 14.8 µM | A549 28.5 µM | HT-29 8.51 µM | HCC 2998 34.3 µM

CC(C)[Si](Oc1cc2c3c(ccc2c(O)c1[C@@H](C)CO[Si](C)(C)C(C)(C)C)C(C)(C)CCC3)(C(C)C)C(C)C
inactive: SW-620 > 100 µM | NCI-H522 39.5 µM | MOLT-4 29.9 µM | Malme-3M 22.6 µM | HCT-116 > 100 µM | SN12C > 100 µM | ACHN > 100 µM | LOX IMVI 64.4 µM | UACC-257 29.4 µM | SK-MEL-28 > 100 µM | RXF 393 > 100 µM | HL-60 17.6 µM | EKVX > 100 µM | U-251 > 100 µM | A549 > 100 µM | HT-29 > 100 µM | OVCAR-4 > 100 µM | HOP-92 > 100 µM

CC1=C(C(=O)NCc2ccccc2)C(c2ccccc2[N+](=O)[O-])C(C(=O)NCc2ccccc2)=C(C)N1
inactive: SW-620 14.5 µM | MOLT-4 8.93 µM | Malme-3M 13.7 µM | HCT-116 6.75 µM | SN12C 12 µM | ACHN 13.9 µM | LOX IMVI 7.24 µM | UACC-257 13.3 µM | SK-MEL-28 13.1 µM | RXF 393 10.6 µM | HL-60 3.31 µM | EKVX 16.4 µM | U-251 10.9 µM | A549 25.9 µM | HT-29 12.8 µM | OVCAR-4 10.2 µM | HOP-92 20.8 µM | HCC 2998 17.3 µM
